The data set addresses HSD17B13. As to conditions: ASO, HepaRG.

After the bases stand the sugars from the 5' end (letter, count) and the backbone: PS all phosphorothioate, else s phosphorothioate and o phosphodiester by linkage. Methylation of C is not given here. e = 2'-O-(2-methoxyethyl) (MOE); k = constrained ethyl (cEt); d = 2'-deoxy (DNA); m = 2'-O-methyl

Where the note is “1 µM”, AAAAAAGCTTATCGAG (sugars k3 d10 k3, PS) showed a target mRNA inhibition of 7%.
As for AAAAAATTGGTTTCGA (sugars k3 d10 k3, PS), for the setting “1 µM”, the target mRNA inhibition was 20%.
On the same count and under the same terms, to AAAAATTGGTTTCGAA (sugars k3 d10 k3, PS) belongs 13%; to AAAAGACTTTGAGACT (sugars k3 d10 k3, PS), 32%; to AAAATGGTGGCGAGGC (sugars k3 d10 k3, PS), 0%.
The same measure, in the same setting: as for AAACAAGAGGATAGTC (sugars k3 d10 k3, PS), the figure is 48%; as for “AAACAAGAGGATAGTC (sugars kkdddddddddkekek, PS)”, 52%; as for AAACATAGGCTTAGTG (sugars k3 d10 k3, PS), 16%.
In turn, “AAACATCTCTGGGACC (sugars k3 d1 m1 d8 k3, PS)” displayed a target mRNA inhibition (1 µM) of 66%.
On the same count and under the same terms, as for “AAACATCTCTGGGACC (sugars k3 d9 k3 e1, PS)”, the figure is 48%; as for “AAACATCTCTGGGACC (sugars kkdddddddddkekek, PS)”, 36%.
The same measure, in the same setting: to AAACCTTCCCTGTGTA (sugars k3 d10 k3, PS) belongs 34%.
On the same count and under the same terms, as for AAACTAGGAAGTGATC (sugars k3 d10 k3, PS), the figure is 39%; as for AAACTTGATCTCTTAG (sugars k3 d10 k3, PS), 61%.
AAAGACTTTGAGACTC (sugars k3 d10 k3, PS): the target mRNA inhibition is, setting by setting: (0.02 µM) 0%; (0.078 µM) 18%; (0.313 µM) 40%; (1 µM) 68%; (1.25 µM) 65%; (5 µM) 87%.
Sequence AAAGTGTCCTCGATCC (sugars k3 d10 k3, PS) showed a target mRNA inhibition (1 µM) of 36%.
The same measure, in the same setting: as for AAAGTTCATTCGAATT (sugars k3 d10 k3, PS), the figure is 63%.
For AAAGTTTGTTAGAGTG (sugars k3 d10 k3, PS), the target mRNA inhibition runs as follows: (0.02 µM) 0%; (0.078 µM) 6%; (0.313 µM) 0%; (1 µM) 75%; (1.25 µM) 55%; (5 µM) 78%.
The sequence “AAATAGAGTCGGTCAC (sugars k3 d1 m1 d8 k3, PS)” had a target mRNA inhibition (1 µM) of 63%.
Take “AAATATGTCCAGGTTG (sugars k3 d1 m1 d8 k3, PS)”: under “1 µM”, the target mRNA inhibition amounted to 63%.
The same measure, in the same setting: as for AAATGAGGCGGCACTC (sugars k3 d10 k3, PS), the figure is 20%; as for AAATGTCCTAGGATGT (sugars k3 d10 k3, PS), 36%; as for AACAGTTTAGATTGCA (sugars k3 d10 k3, PS), 71%.
Still for that read-out and setting: as for AACATAGGCTTAGTGT (sugars k3 d10 k3, PS), the figure is 18%.
The sequence “AACATCTCTGGGACCA (sugars kkdddddddddkekek, PS)” returned a target mRNA inhibition (1 µM) of 36%.
For the setting “1 µM”, “AACAUCTCTGGGACCA (sugars k3 d1 m1 d8 k3, PS)” came in with a target mRNA inhibition of 64%.
Still for that read-out and setting: as for AACCAATCCTCAGCTT (sugars k3 d10 k3, PS), the figure is 0%.
For the sequence AACCATAGGACATGGA (sugars k3 d10 k3, PS), the target mRNA inhibition (1 µM) was found to be 71%.
Under “1 µM”, AACCTAATAACTACAT (sugars k3 d10 k3, PS) returned a target mRNA inhibition of 0%.
The same measure, in the same setting: as for AACCTTCCCTGTGTAA (sugars k3 d10 k3, PS), the figure is 38%; as for AACTAGGAAGTGATCC (sugars k3 d10 k3, PS), 58%.
For the sequence AACTCCGTTATAAGTT (sugars k3 d10 k3, PS), the target mRNA inhibition (1 µM) came out at 11%.
AACTTGATCTCTTAGC (sugars k3 d10 k3, PS) showed a target mRNA inhibition (1 µM) of 64%.
In the case of AAGACAGACCAAGTAG (sugars k3 d10 k3, PS), the target mRNA inhibition (1 µM) was 16%.
Still for that read-out and setting: as for AAGACTTTGAGACTCT (sugars k3 d10 k3, PS), the figure is 62%; as for AAGAGCTGGTAAAGGT (sugars k3 d10 k3, PS), 47%; as for AAGAGGATAGTCCATG (sugars k3 d10 k3, PS), 65%.
On the same count and under the same terms, to “AAGAGTCAGTATCCTC (sugars kkdddddddddkekek, PS)” belongs 14%.
The same measure, in the same setting: as for AAGATACCCAGGTTGC (sugars k3 d10 k3, PS), the figure is 59%.
For the setting “1 µM”, AAGATTAGTTAACCTT (sugars k3 d10 k3, PS) had a target mRNA inhibition of 24%.
On the same count and under the same terms, to AAGCATTGTTAGCTAA (sugars k3 d10 k3, PS) belongs 11%.
For the setting “1 µM”, AAGGACTTTCATAGGG (sugars k3 d10 k3, PS) came in with a target mRNA inhibition of 71%.
Same read-out and setting: to AAGGATTTCTAGGATG (sugars k3 d10 k3, PS) belongs 71%; to AAGGCTTATGAAGTTA (sugars k3 d10 k3, PS), 61%; to AAGTTAATAGGACTAA (sugars k3 d10 k3, PS), 17%.
Regarding AAGTTTTTAAGAGGCA (sugars k3 d10 k3, PS), the target mRNA inhibition was 0% (0.02 µM); 0% (0.078 µM); 43% (0.313 µM); 77% (1 µM); 73% (1.25 µM); 96% (5 µM).
AATAAAGCTTTGCAGC (sugars k3 d10 k3, PS) registered a target mRNA inhibition (1 µM) of 26%.
Take “AATAATAGCTCTATTG (sugars kkdddddddddkekek, PS)”: the target mRNA inhibition (1 µM) was 2%.
Sequence AATACATATCTTACTC (sugars k3 d10 k3, PS) showed a target mRNA inhibition (1 µM) of 37%.
As for AATACGCTGAGAGTTA (sugars k3 d10 k3, PS), the target mRNA inhibition (1 µM) was found to be 48%.
On to AATACTAATGTCCAAG (sugars k3 d10 k3, PS), for which the target mRNA inhibition (1 µM) turned out to be 65%.
On the same count and under the same terms, to “AATAGAGTCGGTCACC (sugars k3 d1 m1 d8 k3, PS)” belongs 57%; to “AATAGAGTCGGTCACC (sugars kkdddddddddkekek, PS)”, 13%.
The same measure, in the same setting: as for AATAGCAAGCCAACAG (sugars k3 d10 k3, PS), the figure is 9%; as for AATAGCCATGTAGCTA (sugars k3 d10 k3, PS), 28%; as for AATATCAGCCATCTAG (sugars k3 d10 k3, PS), 24%.
Same read-out and setting: as for “AATATGGGATGAGGTA (sugars k3 d9 k3 e1, PS)”, the figure is 47%; as for AATATTGAGGCACTGG (sugars k3 d10 k3, PS), 54%; as for AATCAATCTGTCTGAA (sugars k3 d10 k3, PS), 34%.
Consider “AATCACAAGTAAGGTA (sugars kkdddddddddkekek, PS)”, for which the target mRNA inhibition (1 µM) worked out at 59%.
On the same count and under the same terms, to AATCAGTTTTCCTCAT (sugars k3 d10 k3, PS) belongs 53%.
The same measure, in the same setting: to “AATCCCAACCAAACTT (sugars k3 d1 m1 d8 k3, PS)” belongs 7%; to AATCCCAACCAAACTT (sugars k3 d10 k3, PS), 23%; to AATCCTATGCAAATTC (sugars k3 d10 k3, PS), 42%.
Regarding AATCGCTGCTTAGTTC (sugars k3 d10 k3, PS), the target mRNA inhibition (1 µM) was 41%.
Same read-out and setting: as for AATCTAGCAACCTCTA (sugars k3 d10 k3, PS), the figure is 22%; as for “AATGCTACTTGAACAG (sugars kkdddddddddkekek, PS)”, 39%.
The same measure, in the same setting: as for AATGTATGAGGTCTCC (sugars k3 d10 k3, PS), the figure is 65%.
On the same count and under the same terms, to AATGTCCTAGGATGTT (sugars k3 d10 k3, PS) belongs 70%; to AATTACTCCGTTCTGC (sugars k3 d10 k3, PS), 6%.
With “AATTCACCTTGACTAA (sugars k3 d9 k3 e1, PS)”, the target mRNA inhibition (1 µM) was found to be 16%.
“AATTGATACACCAATG (sugars kkdddddddddkekek, PS)”: under “1 µM”, the target mRNA inhibition is 50%.
Still for that read-out and setting: to AATTTATTGGTATGGT (sugars k3 d10 k3, PS) belongs 30%; to AATTTGTGAACCTGCA (sugars k3 d10 k3, PS), 20%.
Same read-out and setting: as for ACAACTGGAGGTATGT (sugars k3 d10 k3, PS), the figure is 0%; as for ACAAGATTAGTCTTGA (sugars k3 d10 k3, PS), 45%.
Take “ACAATATGGGATGAGG (sugars k3 d9 k3 e1, PS)”: the target mRNA inhibition was determined as 0% (0.02 µM); 0% (0.078 µM); 0% (0.313 µM); 76% (1 µM); 39% (1.25 µM); 55% (5 µM).
For the sequence ACAATCTAGCAACCTC (sugars k3 d10 k3, PS), the target mRNA inhibition (1 µM) was 44%.
Still for that read-out and setting: to ACAATCTCCCCAGCCA (sugars k3 d10 k3, PS) belongs 67%.
Same read-out and setting: as for ACACTAATTTAGTCAA (sugars k3 d10 k3, PS), the figure is 16%.
Same read-out and setting: as for “ACACUAATATTGAGGC (sugars k3 d1 m1 d8 k3, PS)”, the figure is 43%; as for ACAGAGGAGTTTGCAG (sugars k3 d10 k3, PS), 37%; as for ACAGATTGGAATGCTA (sugars k3 d10 k3, PS), 50%.
On to “ACAGTAAAATTATGCC (sugars k3 d9 k3 e1, PS)”, for which, under “1 µM”, the target mRNA inhibition turned out to be 62%.
On to “ACAGTCTTAAACCTTC (sugars k3 d9 k3 e1, PS)”, for which the target mRNA inhibition came out at 13% (0.02 µM); 31% (0.078 µM); 52% (0.313 µM); 73% (1 µM); 71% (1.25 µM); 80% (5 µM).
